Data set [1] can be described thus: Induction of disruption of actin stress fibers in human TM1 cells by actin stress fiber assay. Format: functional, cell-based.
Data set [2] is described as follows: Induction of disruption of actin stress fibers in PTM cells by actin stress fiber assay. Format: functional, cell-based, Sus scrofa. The following applies: ptm cell.
Data set [3] deals with Autotaxin (Homo sapiens, UniProt Q13822). Put plainly: Inhibition of ATX (unknown origin).
Data set [4] in a line: Half life in rabbit. In kind it is ADME, Oryctolagus cuniculus. The following applies: in vivo.
Data set [5] is filed under the species Mus musculus. Put plainly: Antiglaucoma activity in mouse eye assessed as increase in lymphatic drainage relative to control. Format: functional.
Data set [6] addresses Prostaglandin E2 receptor EP2 subtype (Homo sapiens, UniProt P43116). Put plainly: Binding affinity to EP2 (unknown origin) assessed as inhibition constant.
Data set [7] concerns Rhesus monkey. As to the kind of experiment: Antiglaucoma activity in ocular […] monkey assessed as reduction in intraocular pressure. In kind it is functional, organism-based. The settings on record: Macaca mulatta.
A short description of data set [8]: Half life in human. Format: ADME.
Data set [9] addresses Prostaglandin F2-alpha receptor (Homo sapiens, UniProt P43088). As to the kind of experiment: Agonist activity at FP receptor (unknown origin).
The target in data set [10] is T1, Prostaglandin E2 receptor EP3 subtype (Homo sapiens, UniProt P43115).
T1 sequence (P43115 whole entry): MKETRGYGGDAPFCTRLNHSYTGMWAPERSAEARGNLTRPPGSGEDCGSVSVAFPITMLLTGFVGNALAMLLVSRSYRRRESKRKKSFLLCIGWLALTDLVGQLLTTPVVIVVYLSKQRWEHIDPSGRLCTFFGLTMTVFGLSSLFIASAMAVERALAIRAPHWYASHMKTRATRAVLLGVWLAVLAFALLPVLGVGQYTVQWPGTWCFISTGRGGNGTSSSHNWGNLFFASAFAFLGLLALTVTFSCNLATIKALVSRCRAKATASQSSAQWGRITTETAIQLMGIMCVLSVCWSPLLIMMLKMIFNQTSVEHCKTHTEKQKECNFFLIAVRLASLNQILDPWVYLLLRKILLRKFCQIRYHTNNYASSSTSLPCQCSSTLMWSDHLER
As to the kind of experiment: Agonist activity at EP3 (unknown origin).

“And” between values parts separate entries of the source, which are not always exact repeats. Identical values can stand only once.

Sequence of Prostaglandin F2-alpha receptor (P43088 whole entry): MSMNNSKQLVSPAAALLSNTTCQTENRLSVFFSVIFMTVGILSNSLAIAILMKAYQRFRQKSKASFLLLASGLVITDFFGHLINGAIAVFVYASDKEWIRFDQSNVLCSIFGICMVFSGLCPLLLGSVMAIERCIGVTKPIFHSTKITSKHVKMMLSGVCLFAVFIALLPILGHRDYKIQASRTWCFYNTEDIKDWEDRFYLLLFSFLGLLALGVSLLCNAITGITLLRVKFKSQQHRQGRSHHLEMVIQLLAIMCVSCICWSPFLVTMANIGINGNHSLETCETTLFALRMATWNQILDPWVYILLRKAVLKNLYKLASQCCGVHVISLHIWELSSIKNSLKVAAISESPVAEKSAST
Sequence of Prostaglandin E2 receptor EP2 subtype (P43116 whole entry): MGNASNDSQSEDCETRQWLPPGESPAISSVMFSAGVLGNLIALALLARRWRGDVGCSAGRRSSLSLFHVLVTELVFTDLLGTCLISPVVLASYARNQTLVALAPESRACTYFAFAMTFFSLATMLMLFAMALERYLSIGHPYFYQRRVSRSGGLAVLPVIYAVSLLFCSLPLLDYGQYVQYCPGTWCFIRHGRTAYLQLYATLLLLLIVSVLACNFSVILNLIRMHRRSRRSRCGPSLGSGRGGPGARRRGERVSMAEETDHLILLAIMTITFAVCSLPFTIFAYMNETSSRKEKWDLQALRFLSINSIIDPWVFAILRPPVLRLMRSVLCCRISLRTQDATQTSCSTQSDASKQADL

By IC50 is commonly meant the point on the concentration scale where inhibition reaches its midpoint. Take `Cc1ccc(C(=O)OCc2ccc([C@@H](CN)C(=O)Nc3ccc4cnccc4c3)cc2)c(C)c1`: the results for the IC50 in data set [1] and in [2] were 0.016 µM and 0.079 µM, respectively. Consider `NC[C@@H](C(=O)Nc1ccc2cnccc2c1)c1ccc(CO)cc1`, for which the IC50 in [2] is 0.022 µM and 0.003 µM. `CCCCCn1c(N2CCC[C@H](C(=O)O)C2)cc(=O)n2cc(-c3ccc(Cl)cc3)nc12` displayed an IC50 in data set [3] of 0.11 µM. For orientation: half-life means the time in which the quantity being followed falls by half. For `O=C(CCC/C=C\C[C@@H]1[C@@H](CC[C@@H](O)CCc2ccccc2)[C@H](O)C[C@@H]1O)OCCCCO[N+](=O)[O-]` [LATANOPROSTENE BUNOD], the half-life in data set [4] is 1.8 h.

Consider `CC(C)OC(=O)CCC/C=C\C[C@@H]1[C@@H](CC[C@@H](O)CCc2ccccc2)[C@H](O)C[C@@H]1O` [LATANOPROST], for which the Activity in [5] worked out at 400%. The Ki is a dissociation constant, usually derived from enzyme kinetics or from competition with a known ligand. In general, EC50 refers to the midpoint of the concentration-response curve. For the compound `O=C(O)CNc1cccc(CN(Cc2ccc(-n3cccn3)cc2)S(=O)(=O)c2cccnc2)n1` [OMIDENEPAG], the inhibition constant Ki in data set [6] stood at 0.0036 µM. The EC50 in data set [7] is 0.0083 µM. In addition, in data set [8], the half-life stood at 0.5 h. `O=C(O)CCC[C@H]1CC[C@@H]2[C@@H](/C=C/[C@@H](O)COc3cc(F)ccc3F)[C@H](O)C[C@@H]2OC1` [ONO-AG-367]: the EC50 was 0.0223 µM in data set [9] and 0.0286 µM in data set [10]. As to `CC(C)OC(=O)CCC[C@H]1CC[C@@H]2[C@@H](/C=C/[C@@H](O)COc3cc(F)ccc3F)[C@H](O)C[C@@H]2OC1` [SEPETAPROST], the EC50 turned out to be 3.03 µM in data set [9] and 0.01 µM in data set [10].

The values above are taken from ChEMBL document CHEMBL5241102, “Drugs for the treatment of glaucoma: Targets, structure-activity relationships and clinical research” (Eur J Med Chem, 2021).
